# Measurements: PubChem BioAssay AID330 (DTP/NCI, 2004)
# Several values for one entry are separate records, joined by “and”; a condition that tells them apart may be missing. Identical values can stand only once. Inconclusive results and toxic doses are left out.
# Test system: P388 leukemia ip, CD2F1 mice, survival T/C
# Test: NCI In Vivo Anticancer Drug Screen. Data for tumor model P388 Leukemia (intraperitoneal) in CD2F1 (CDF1) mice
# Conditions: endpoint: median survival time, higher = longer survival
# Summary of the method: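 Mice carrying the transplanted tumor received test compound or vehicle. Survival was recorded in each group, and the value is the treated-group measurement divided by that of the vehicle-treated control group.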
# [1] = dose: 50.0 mg/kg/injection, schedule: Q01DX005 (ip), vehicle: Klucel (hydroxypropylcellulose) (HPC)
# [2] = dose: 100.0 mg/kg/injection, schedule: Q01DX005 (ip), vehicle: Klucel (hydroxypropylcellulose) (HPC)
# [3] = dose: 25.0 mg/kg/injection, schedule: Q01DX009 (ip), vehicle: saline with Tween-80
# [4] = dose: 50.0 mg/kg/injection, schedule: Q01DX009 (ip), vehicle: saline with Tween-80
# [5] = dose: 100.0 mg/kg/injection, schedule: Q01DX009 (ip), vehicle: saline with Tween-80
# [6] = dose: 12.5 mg/kg/injection, schedule: Q01DX005 (ip), vehicle: Klucel (hydroxypropylcellulose) (HPC)
# [7] = dose: 25.0 mg/kg/injection, schedule: Q01DX005 (ip), vehicle: Klucel (hydroxypropylcellulose) (HPC)
# [8] = dose: 60.0 mg/kg/injection, schedule: Q01DX005 (ip), vehicle: saline with Tween-80
# [9] = dose: 120.0 mg/kg/injection, schedule: Q01DX005 (ip), vehicle: saline with Tween-80
# [10] = dose: 240.0 mg/kg/injection, schedule: Q01DX005 (ip), vehicle: saline with Tween-80
# [11] = dose: 1.56 mg/kg/injection, schedule: Q01DX009 (ip), vehicle: water
# [12] = dose: 6.25 mg/kg/injection, schedule: Q01DX009 (ip), vehicle: water
# [13] = dose: 12.5 mg/kg/injection, schedule: Q01DX009 (ip), vehicle: water
# [14] = dose: 50.0 mg/kg/injection, schedule: Q01DX009 (ip), vehicle: saline
# [15] = dose: 100.0 mg/kg/injection, schedule: Q01DX009 (ip), vehicle: saline
# [16] = dose: 200.0 mg/kg/injection, schedule: Q01DX009 (ip), vehicle: saline
# [17] = dose: 50.0 mg/kg/injection, schedule: Q01DX005 (ip), vehicle: saline
smiles,measurement,setting,value
Cc1ccc(=O)c2ccsc2c1,T/C,"dose: 100.0 mg/kg/injection, schedule: Q04DX003 (ip), vehicle: Klucel (hydroxypropylcellulose) (HPC)",105 % of control
same,T/C,"dose: 200.0 mg/kg/injection, schedule: Q04DX003 (ip), vehicle: Klucel (hydroxypropylcellulose) (HPC)",94 % of control
CCOC(=O)/C(C(=N)c1nc(C)c(C(=O)OCC)c(C(N)=O)n1)=C(/C)O,T/C,[1],113 % of control
same,T/C,[2],102 % of control and 90 % of control
same,T/C,"dose: 200.0 mg/kg/injection, schedule: Q01DX005 (ip), vehicle: Klucel (hydroxypropylcellulose) (HPC)",90 % of control and 94 % of control
CC1=CC(=O)C2C1CC(=O)C1(C)C3C(=O)OC(C3C)C(O)C21 (stereo not given),T/C,"dose: 2.0 mg/kg/injection, schedule: Q01DX005 (ip), vehicle: Klucel (hydroxypropylcellulose) (HPC)",94 % of control
same,T/C,"dose: 4.0 mg/kg/injection, schedule: Q01DX005 (ip), vehicle: Klucel (hydroxypropylcellulose) (HPC)",100 % of control
same,T/C,"dose: 8.0 mg/kg/injection, schedule: Q01DX005 (ip), vehicle: Klucel (hydroxypropylcellulose) (HPC)",103 % of control
same,T/C,"dose: 16.0 mg/kg/injection, schedule: Q01DX005 (ip), vehicle: Klucel (hydroxypropylcellulose) (HPC)",98 % of control
same,T/C,"dose: 32.0 mg/kg/injection, schedule: Q01DX005 (ip), vehicle: Klucel (hydroxypropylcellulose) (HPC)",100 % of control
CCN(CC)CCOc1cccc(C)c1C,T/C,[3],100 % of control
same,T/C,[4],95 % of control
same,T/C,[5],104 % of control
Cc1cc(N/N=C/c2ccc(F)cc2)c2cc3c(cc2n1)OCO3,T/C,[6],104 % of control
same,T/C,[7],104 % of control
same,T/C,[1],107 % of control and 109 % of control
O=C(O)CSCC(=O)Nc1ccccc1Cl,T/C,[8],95 % of control
same,T/C,[9],91 % of control
same,T/C,[10],100 % of control
O=C(CCc1ccc(O)cc1)c1c(O)cc(O)cc1O,T/C,"dose: 50.0 mg/kg/injection, schedule: Q01DX005 (ip), vehicle: saline with Tween-80",107 % of control
same,T/C,"dose: 50.0 mg/kg/injection, schedule: Q01DX009 (ip), vehicle: saline + alcohol",112 % of control
same,T/C,"dose: 100.0 mg/kg/injection, schedule: Q01DX005 (ip), vehicle: saline with Tween-80",108 % of control
same,T/C,"dose: 100.0 mg/kg/injection, schedule: Q01DX009 (ip), vehicle: saline + alcohol",117 % of control
same,T/C,"dose: 200.0 mg/kg/injection, schedule: Q01DX005 (ip), vehicle: saline with Tween-80",114 % of control
same,T/C,"dose: 200.0 mg/kg/injection, schedule: Q01DX009 (ip), vehicle: saline + alcohol",108 % of control
same,T/C,"dose: 400.0 mg/kg/injection, schedule: Q01DX005 (ip), vehicle: saline with Tween-80",114 % of control
CCCCCCCCCCCCCCCC(=O)N(CCCN)C(C)(C)CCC(C)(C)N(CCCN)C(=O)CCCCCCCCCCCCCCC,T/C,[11],101 % of control
same,T/C,"dose: 3.13 mg/kg/injection, schedule: Q01DX009 (ip), vehicle: water",107 % of control
same,T/C,[12],114 % of control
same,T/C,[13],113 % of control
same,T/C,"dose: 25.0 mg/kg/injection, schedule: Q01DX009 (ip), vehicle: water",93 % of control
O=c1c(N=Nc2ccccc2)c[nH]n1-c1ccccc1,T/C,"dose: 62.5 mg/kg/injection, schedule: Q01DX009 (ip), vehicle: saline with Tween-80",97 % of control
same,T/C,"dose: 125.0 mg/kg/injection, schedule: Q01DX009 (ip), vehicle: saline with Tween-80",97 % of control
same,T/C,"dose: 250.0 mg/kg/injection, schedule: Q01DX009 (ip), vehicle: saline with Tween-80",94 % of control
COc1ccc(CCN2C(=O)C(=O)N(c3ccc([N+](=O)[O-])cc3)C2=O)cc1OC,T/C,[14],91 % of control
same,T/C,[15],94 % of control
same,T/C,[16],94 % of control
COC(=O)C(=O)c1c(C(=O)OC)nc2nnc(N)n2c1-c1ccc(OC)cc1,T/C,[8],100 % of control
same,T/C,[9],107 % of control
same,T/C,[10],96 % of control
O=C(c1ccc(C(=O)N2CC2)cc1)N1CC1,T/C,"dose: 10.0 mg/kg/injection, schedule: Q04DX003 (ip), vehicle: saline with Tween-80",118 % of control
same,T/C,"dose: 20.0 mg/kg/injection, schedule: Q04DX003 (ip), vehicle: saline with Tween-80",109 % of control
C=CB(OCCC)OCCC,T/C,[14],92 % of control
same,T/C,[15],92 % of control
same,T/C,[16],88 % of control
CCN(CC)CCCCCCCCOC(=O)c1cc(OC)c(OC)c(OC)c1,T/C,"dose: 12.5 mg/kg/injection, schedule: Q01DX005 (ip), vehicle: saline",101 % of control
same,T/C,"dose: 25.0 mg/kg/injection, schedule: Q01DX005 (ip), vehicle: saline",97 % of control
same,T/C,[17],96 % of control
same,T/C,"dose: 60.0 mg/kg/injection, schedule: Q01DX005 (ip), vehicle: saline",99 % of control
CC1CCC/C=C/C2CC(O)CC2C(O)/C=C\C(=O)O1 (stereo not given),T/C,"dose: 8.75 mg/kg/injection, schedule: Q01DX005 (ip), vehicle: Klucel (hydroxypropylcellulose) (HPC)",101 % of control
same,T/C,"dose: 17.5 mg/kg/injection, schedule: Q01DX005 (ip), vehicle: Klucel (hydroxypropylcellulose) (HPC)",97 % of control
same,T/C,"dose: 35.0 mg/kg/injection, schedule: Q01DX005 (ip), vehicle: Klucel (hydroxypropylcellulose) (HPC)",93 % of control
same,T/C,"dose: 70.0 mg/kg/injection, schedule: Q01DX005 (ip), vehicle: Klucel (hydroxypropylcellulose) (HPC)",100 % of control
Cc1c2cccc(F)c2c[n+]2ccccc12,T/C,"dose: 6.25 mg/kg/injection, schedule: Q01DX009 (ip), vehicle: Klucel (hydroxypropylcellulose) (HPC)",96 % of control
same,T/C,"dose: 12.5 mg/kg/injection, schedule: Q01DX009 (ip), vehicle: Klucel (hydroxypropylcellulose) (HPC)",103 % of control
same,T/C,"dose: 25.0 mg/kg/injection, schedule: Q01DX009 (ip), vehicle: Klucel (hydroxypropylcellulose) (HPC)",102 % of control and 113 % of control
NC(CCCCNC(=S)S)C(=O)O.[Na+].[Zn+2] (stereo not given),T/C,[6],102 % of control
same,T/C,[7],102 % of control
same,T/C,[1],102 % of control and 107 % of control and 114 % of control
same,T/C,[2],109 % of control and 120 % of control (2×)
O=C(O)C(O)C(O)C(OC1OC(CO)C(O)C(O)C1O)C(O)CO (stereo not given),T/C,[17],105 % of control
same,T/C,"dose: 100.0 mg/kg/injection, schedule: Q01DX005 (ip), vehicle: saline",101 % of control
same,T/C,"dose: 200.0 mg/kg/injection, schedule: Q01DX005 (ip), vehicle: saline",102 % of control
CCOC(=O)c1c(O)c(Cc2ccccc2)c(=O)n2c1[nH]c1cc(C)c(C)cc12,T/C,"dose: 7.5 mg/kg/injection, schedule: Q01DX005 (ip), vehicle: saline with Tween-80",100 % of control
same,T/C,"dose: 15.0 mg/kg/injection, schedule: Q01DX005 (ip), vehicle: saline with Tween-80",100 % of control
CN=C(NN(C)C)c1ccc(NC(=O)c2ccc(C(=O)Nc3ccc(C(=NC)NN(C)C)cc3)cc2)cc1,T/C,"dose: 3.3 mg/kg/injection, schedule: Q01DX009 (ip), vehicle: saline with Tween-80",115 % of control
same,T/C,"dose: 4.3 mg/kg/injection, schedule: Q01DX009 (ip), vehicle: saline with Tween-80",118 % of control
same,T/C,"dose: 13.2 mg/kg/injection, schedule: Q04DX003 (ip), vehicle: saline with Tween-80",91 % of control
Cc1cccc(Nc2c3c(nc4ccccc24)CCCCC3)c1,T/C,[8],98 % of control
same,T/C,[9],90 % of control
same,T/C,[10],91 % of control
BrC1c2ccccc2-c2nc3ccccc3nc21 (stereo not given),T/C,[6],112 % of control
same,T/C,[7],99 % of control
same,T/C,[1],103 % of control and 115 % of control
CN(C)c1ccc(NN=O)nc1,T/C,[11],122 % of control
same,T/C,[12],150 % of control
same,T/C,[13],110 % of control
O=[N+]([O-])c1ccc2[nH]c3cnccc3c2c1,T/C,"dose: 12.5 mg/kg/injection, schedule: Q01DX009 (ip), vehicle: other",106 % of control
same,T/C,"dose: 25.0 mg/kg/injection, schedule: Q01DX009 (ip), vehicle: other",105 % of control
same,T/C,"dose: 50.0 mg/kg/injection, schedule: Q01DX009 (ip), vehicle: other",108 % of control
same,T/C,"dose: 100.0 mg/kg/injection, schedule: Q01DX009 (ip), vehicle: other",107 % of control
NC(=NCCCC(NC(=O)c1ccccc1)C(=O)O)NC(=O)c1ccccc1 (stereo not given),T/C,[3],108 % of control and 91 % of control
same,T/C,[4],100 % of control and 90 % of control
same,T/C,[5],93 % of control and 96 % of control
same,T/C,"dose: 200.0 mg/kg/injection, schedule: Q01DX009 (ip), vehicle: saline with Tween-80",86 % of control and 97 % of control
